Tests used:
[1] = molecular target: T1, rabbit reticulocyte 15-LO (Oryctolagus cuniculus, UniProt P12530); assay: Rabbit Reticulocyte 15-LO Assay (h15LO); format: biochemical; conditions: for IC50: 2U rabbit reticulocyte 15-LO, 174 μM linoleic acid, 15 minutes at 4° C.; for inhibition at 10 µM: 0.25 h, read-out: h15LO % @ 10 μM
T1 construct: Fifteen-lipoxygenase was obtained from phenylhydrazine-treated rabbits and purified per the method of Rapoport; from tissue; host or cells: reticulocytes of phenylhydrazine-treated rabbits
T1 sequence (P12530 1-663): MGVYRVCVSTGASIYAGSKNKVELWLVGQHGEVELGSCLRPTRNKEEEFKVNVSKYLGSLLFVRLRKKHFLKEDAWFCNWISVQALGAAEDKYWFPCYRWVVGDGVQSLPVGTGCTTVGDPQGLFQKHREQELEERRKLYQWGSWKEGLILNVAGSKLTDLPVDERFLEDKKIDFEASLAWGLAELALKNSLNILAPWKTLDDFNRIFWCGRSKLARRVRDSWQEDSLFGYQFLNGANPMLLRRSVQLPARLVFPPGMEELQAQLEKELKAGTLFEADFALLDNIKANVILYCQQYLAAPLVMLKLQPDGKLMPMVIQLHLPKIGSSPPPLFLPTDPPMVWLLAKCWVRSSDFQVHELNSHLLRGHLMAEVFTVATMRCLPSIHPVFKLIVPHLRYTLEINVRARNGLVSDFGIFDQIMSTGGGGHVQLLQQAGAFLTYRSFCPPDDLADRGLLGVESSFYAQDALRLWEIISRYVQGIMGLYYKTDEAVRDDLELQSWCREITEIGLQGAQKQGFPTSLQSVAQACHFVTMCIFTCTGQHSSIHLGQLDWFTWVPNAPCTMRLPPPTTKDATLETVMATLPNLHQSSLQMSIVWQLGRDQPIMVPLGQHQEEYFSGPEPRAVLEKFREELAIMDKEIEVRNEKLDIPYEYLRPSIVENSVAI
Outline: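 Linoleic acid oxidation to 13-HPODE measured at 4° C. over 15 minutes, using 174 μM substrate and 2U enzyme purified from phenylhydrazine-treated rabbits in PBS/0.2% Na cholate. Product peak areas calibrated with authentic 13-HODE; inhibition expressed versus maximal reaction.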

[2] = tested on: monocytes; assay: Monocyte Recruitment Assay (chemotaxis of monocytes); format: cell-based; conditions: Table 3; for EC50: Monocyte, read-out: Monocyte Recruitment Assay ED50
Description: Monocyte Recruitment Assay
The recruitment or chemotaxis of monocytes was assayed by methods well known to those skilled in the art. In particular, the method set forth in J. Clin. Invest., 1988;82:1853-1863, which is hereby incorporated by reference, was used.

[3] = tested on: Rabbits fed a 0.25% cholesterol, 3% peanut oil, 3% coconut oil diet; assay: In vivo tests: aortic atherosclerotic lesions in rabbits fed a cholesterol diet; conditions: 10 mg/kg as diet admix, 12 weeks
Description: The entire descending thoracic aorta was assayed for its cholesteryl ester (CE), free cholesterol phospholipid content. The lipids were extracted in chloroform:methanol (2:1) by the procedure of Folch, et al. (Folch J., Lees M., Sloane-Stanley G. H. A simple method for the isolation and purification of total lipids from animal tissue, J. Biol. Chem., 1957;226:497-509) and 300-500 μL of an internal standard, i.e., 200 mg/ml solution of 4-hydroxy-cholesterol in ethyl acetate:acetone (2:1), was added to the extracts of the thoracic aortic samples. After extraction, the organic phase was dried under nitrogen and redissolved in isooctane/tetrahydro-furan (97:3). The lipid content and composition of the thoracic aorta were measured using an HPLC method.
For histologic evaluation of the aortic arch lesions and for quantification of aortic arch cross-sectional lesion area, a 1 cm segment of the ascending aorta distal to the aortic valves was fixed in 10% neutral buffered formalin for 24 hours. The vessels were dehydrated, cleared in xylene, and infiltrated with molten paraffin (<60° C.) using a Tissue Tek VIP autoprocessor (Miles Scientific, Elkhart, Ind.). The tissue segments were embedded in paraffin and sectioned at 5 μm with a Reichert-Jung microtome (Baxter, McGraw Park, Ill.). In order to obtain a thorough representation of the histologic appearance of the aortic arch lesions, 3 ribbons of 20 sections each were cut. Each ribbon of sections was spaced approximately 100 μm apart. Three pairs of sections, i.e., 1 pair from each ribbon, were affixed to cleaned 3-aminopropyltriethoxy-silane coated glass slides and stored until stained. The general histologic character was evaluated in Verhoeff's elastica stained sections.
The gross extent of atherosclerosis within the aortic arch was measured. In addition, sections of the aortic arch, a site of hypercholesterolemia-induced lesions, stained using the Verhoeff's elastica procedure were used for quantification of lesion cross-sectional. The internal elastic lamina (IEL) was identified as a blue-black ring and images of that region were collected using a digital camera. The area within the IEL was quantified using the Image Pro Plus image analysis software. The area of the lumen of the aortic arch was also quantified in a similar fashion. Lesion area was defined as the difference between the area circumscribed by the internal elastic lamina and the lumen area.
Aortic arch lesion extent was also measured. The area distal to the 1 cm segment taken for histologic evaluation to the first intercostal ostia was removed from the animal, opened longitudinally and images of the surface of the vessel was collected using a digital camera. The lesions were identified as raised, opaque areas and their area was determined using the Image Pro Plus image analysis software. The area of the entire aortic arch was also determined. The percentage of aortic arch covered by atherosclerotic lesions was calculated.

SMILES | IC50 ([1]; Table 2) [nM] | melting point [°C] | further results
COc1ccc(C(=O)Nc2ccccc2)cc1NC(=S)Nc1ccc(C)cc1 [Example 69, 4-Methoxy-N-phenyl-3-(-3-p-tolyl-thioureido)-benzamide] | 32 | – | Monocyte Recruitment Assay % @ 30 μM ([2]; @ 30 μM): 13% @ 30 μM
COc1ccc(C(=O)Nc2ccc(Cl)c(Cl)c2)cc1NS(C)(=O)=O [Example 119, 3-Methanesulfonylamino-4-methoxy-N-(3,4-dichlorophenyl)-benzamide] | 90 | 226 to 228 | Aortic Arch Cross-Sectional Lesion Area (% Δ from Control) [3]: −50 % Δ from Control; Aortic Arch Lesion Extent (% Δ from Control) [3]: +46 % Δ from Control; Aortic Cholesteryl Ester Content (% Δ from Control) [3]: +46 % Δ from Control
O=C(Nc1ccccc1)c1ccc(O)c(Nc2cc(Cl)cc(Cl)c2)c1 [Example 56, 4-Hydroxy-3-(3,5-dichloro-phenylamino)-N-phenyl-benzamide] | 18 | 160 to 162 | EC50 [2]: 2600 nM
COc1ccc(C(=O)Nc2ccccc2)cc1Nc1cc(Cl)cc(Cl)c1 [Example 35, 3-(3,5-Dichloro-phenylamino)-4-methoxy-N-phenyl-benzamide] | 7 | – | EC50 [2]: 26300 nM
COc1ccc(C(=O)Nc2ccccc2)cc1NCc1cc(Cl)cc(Cl)c1 [Example 51, 3-(3,5-Dichloro-benzylamino)-4-methoxy-N-phenyl-benzamide] | – | – | inhibition at 10 µM ([1]; Table 2): 69%; EC50 [2]: 20000 nM
COc1ccc(C(=O)Nc2ccccc2)cc1NC(=S)Nc1ccc(C(=O)O)cc1 [Example 75, 4-[3-(2-Methoxy-5-phenylcarbamoyl-phenyl)-thioureido]-benzoic acid] | 104 | 201 to 202 | Aortic Arch Cross-Sectional Lesion Area (% Δ from Control) [3]: −90 % Δ from Control; Aortic Arch Lesion Extent (% Δ from Control) [3]: −49 % Δ from Control; Aortic Cholesteryl Ester Content (% Δ from Control) [3]: −28 % Δ from Control
COc1ccc(C(=O)Nc2ccccc2)cc1NC(=S)NC(=O)c1ccccc1 [Example 67, 4-Methoxy-N-phenyl-3-(3-benzoyl-thioureido)-benzamide] | 10000 | – | EC50 [2]: 24100 nM
COc1ccc(C(=O)Nc2ccc(F)cc2)cc1Nc1cccc(C(F)(F)F)c1 [Example 40, 3-(3-Trifluoromethyl-phenylamino)-4-methoxy-N-(4-fluorophenyl)-benzamide] | 17 | 163 to 164 | Aortic Arch Cross-Sectional Lesion Area (% Δ from Control) [3]: −6 % Δ from Control; Aortic Arch Lesion Extent (% Δ from Control) [3]: +35 % Δ from Control; Aortic Cholesteryl Ester Content (% Δ from Control) [3]: +5 % Δ from Control
COc1ccc(C(=O)Nc2ccc(Cl)c(Cl)c2)cc1N [Example 4, 3-Amino-4-methoxy-N-(3,4-dichlorophenyl)-benzamide] | – | 179 to 182 | IC50 ([1]; Table 1): 10 nM; Aortic Arch Cross-Sectional Lesion Area (% Δ from Control) [3]: −94 % Δ from Control; Aortic Arch Lesion Extent (% Δ from Control) [3]: +20 % Δ from Control; Aortic Cholesteryl Ester Content (% Δ from Control) [3]: −7 % Δ from Control
COc1ccc(C(=O)Nc2ccc(F)cc2)cc1NC(=S)Nc1cc(Cl)cc(Cl)c1 [Example 91, 3-[3-(3,5-Dichlorophenyl)-thioureido]-N-(4-fluorophenyl)-4-methoxy-benzamide] | 8 | 175 to 178 | Aortic Arch Cross-Sectional Lesion Area (% Δ from Control) [3]: −11 % Δ from Control; Aortic Arch Lesion Extent (% Δ from Control) [3]: −12 % Δ from Control; Aortic Cholesteryl Ester Content (% Δ from Control) [3]: +50 % Δ from Control
COc1ccc(C(=O)Nc2ccccc2)cc1NCc1ccc(OC)c(OC)c1 [Example 52, 3-(3,4-Dimethoxy-benzylamino)-4-methoxy-N-phenyl-benzamide] | – | 187 to 188 | inhibition at 10 µM ([1]; Table 2): 62%
COc1ccc(C(=O)Nc2ccccc2)cc1NC(=S)Nc1cccc(C(=O)O)c1 [Example 113, 3-[3-(2-Methoxy-5-phenylcarbamoyl-phenyl)-thioureido]-benzoic Acid] | 52 | 196 to 197 | –
COc1ccc(C(=O)Nc2ccc(F)cc2)cc1Nc1ccccc1 [Example 39, 3-Phenylamino-4-methoxy-N-(4-fluorophenyl)-benzamide] | 50 | 151 to 152 | –
COc1ccc(C(=O)Nc2ccccc2)cc1NS(=O)(=O)c1cccc2ccccc12 [Example 133, 3-(Naphthalene-1-sulfonylamino)-4-methoxy-N-phenyl-benzamide] | 58 | 212 to 213 | –
O=C(Nc1ccccc1)c1cccc(Nc2ccccc2)c1 [Example 25, 3-Phenylamino-N-phenyl-benzamide] | 6430 | 134 to 135 | –
COc1ccc(C(=O)Nc2cccnc2)cc1Nc1cccc(C(F)(F)F)c1 [Example 45, 4-Methoxy-3-(3-trifluoromethyl-phenylamino)-N-(3-pyridyl)-benzamide] | 440 | 184 to 185 | –
COc1ccc(NC(=O)c2ccccc2)cc1NC(=S)Nc1cc(Cl)cc(Cl)c1 [Example 87, N-{^3-[^3-(3,5-Dichlorophenyl)-thioureido]-4-methoxy-phenyl}-benzamide] | 102 | 194 to 195 | –
COc1ccc(C(=O)Nc2ccccc2)cc1NC(=S)Nc1ccc(C(F)(F)F)cc1 [Example 63, 4-Methoxy-N-phenyl-3-[3-(4-trifluoromethyl-phenyl)-thioureido]-benzamide] | 49 | 194 to 196 | –
COc1ccc(C(=O)Nc2ccc(C)c(Cl)c2)cc1N [Example 12, 3-Amino-4-methoxy-N-(3-chloro-4-methylphenyl)-benzamide] | – | 153 to 157 | IC50 ([1]; Table 1): 73 nM
O=C(Nc1ccccc1)c1cccc(Oc2ccccc2)c1 [Example 53, 3-Phenoxy-N-phenyl-benzamide] | – | 111 to 112 | inhibition at 10 µM ([1]; Table 2): 57%
COc1ccc(C(=O)Nc2cc(C)cc(C)c2)cc1N [Example 11, 3-Amino-4-methoxy-N-(3,5-dimethylphenyl)-benzamide] | – | 155 to 162 | IC50 ([1]; Table 1): 390 nM
CSc1ccc(C(=O)Nc2ccccc2)cc1N [Example 20, 3-Amino-4-methylsulfanyl-N-phenyl-benzamide] | – | 143 to 145 | IC50 ([1]; Table 1): 203 nM
O=C(Nc1ccc(F)cc1)c1ccc(OC(F)(F)F)c(NC(=S)Nc2cccc(C(F)(F)F)c2)c1 [Example 164] | 1590 | 153 to 154 | –
COc1ccc(C(=O)Nc2cccnc2)cc1N [Example 5, 3-Amino-4-methoxy-N-(3-pyridyl)-benzamide] | – | 193 to 196 | IC50 ([1]; Table 1): 38 nM

— US6528528B2 (Warner-Lambert Company, priority 1997, dated 2003)
